From PubChem BioAssay AID1963845 (Molecular Pharmacology Branch, DTP, NCI, 2024)

Tested on: 429239-143-T-J1-PDC complex spheroid viability
Assay: Anticancer human tumor 429239-143-T-J1-PDC patient-derived small cell lung carcinoma cell line growth inhibition [POLQ]
Conditions: for IC50: curve of first compound; for viability, T/C: stronger effect = lower value
Procedure, shortened: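 Patient-derived tumour cells were co-cultured with HUVEC and mesenchymal stem cells as multicellular spheroids at 37 °C. They were treated with POLQ inhibitors (novobiocin, ART-558, RP6685) alone or combined with other agents. Top concentrations were at or near clinical Cmax (otherwise 10 microM; SN-38 at 1 microM), decreasing in half-log steps.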

[1] = second compound 0.0316 µM, first compound 0.0316 µM
[2] = second compound 0.0316 µM, first compound 0.1 µM
[3] = second compound 0.0316 µM, first compound 0.316 µM
[4] = second compound 0.0316 µM, first compound 1 µM
[5] = second compound 0.0316 µM, first compound 3.16 µM
[6] = second compound 0.0316 µM, first compound 10 µM
[7] = second compound 0.1 µM, first compound 0.0316 µM
[8] = second compound 0.1 µM, first compound 0.1 µM
[9] = second compound 0.1 µM, first compound 0.316 µM
[10] = second compound 0.1 µM, first compound 1 µM
[11] = second compound 0.1 µM, first compound 3.16 µM
[12] = second compound 0.1 µM, first compound 10 µM
[13] = second compound 0.316 µM, first compound 0.0316 µM
[14] = second compound 0.316 µM, first compound 0.1 µM
[15] = second compound 0.316 µM, first compound 0.316 µM
[16] = second compound 0.316 µM, first compound 1 µM
[17] = second compound 0.316 µM, first compound 3.16 µM
[18] = second compound 0.316 µM, first compound 10 µM
[19] = second compound 1 µM, first compound 0.0316 µM
[20] = second compound 1 µM, first compound 0.1 µM
[21] = second compound 1 µM, first compound 0.316 µM
[22] = second compound 1 µM, first compound 1 µM
[23] = second compound 1 µM, first compound 3.16 µM
[24] = second compound 1 µM, first compound 10 µM
[25] = second compound 3.16 µM, first compound 0.0316 µM
[26] = second compound 3.16 µM, first compound 0.1 µM
[27] = second compound 3.16 µM, first compound 0.316 µM
[28] = second compound 3.16 µM, first compound 1 µM
[29] = second compound 3.16 µM, first compound 3.16 µM
[30] = second compound 3.16 µM, first compound 10 µM
[31] = second compound 10 µM, first compound 0.0316 µM
[32] = second compound 10 µM, first compound 0.1 µM
[33] = second compound 10 µM, first compound 0.316 µM
[34] = second compound 10 µM, first compound 1 µM
[35] = second compound 10 µM, first compound 3.16 µM
[36] = second compound 10 µM, first compound 10 µM
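Also: luminescence signal used as surrogate measure of viable cells; spheroids exposed to compounds for seven days before readout.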
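For viability, T/C in this document: 100% = DMSO vehicle control viability as luminescence relative to vehicle.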

Q: Which results are given for `CC1COCCN1c1cc(C2(S(C)(=N)=O)CC2)nc(-c2ccnc3[nH]ccc23)n1` (centres undefined) + COC1C(OC(N)=O)C(O)C(Oc2ccc3c(O)c(NC(=O)c4ccc(O)c(CC=C(C)C)c4)c(=O)oc3c2C)OC1(C)C?
A: IC50 (second compound 0.0316 µM): 2.27 µM; IC50 (second compound 0.1 µM): 2.12 µM; IC50 (second compound 0.316 µM): 1.99 µM; IC50 (second compound 1 µM): 2.43 µM; IC50 (second compound 3.16 µM): 1.88 µM; IC50 (second compound 10 µM): 2.58 µM; viability, T/C [1]: 116%; viability, T/C [2]: 100%; viability, T/C [3]: 89.4%; viability, T/C [4]: 79.4%; viability, T/C [5]: 35.6%; viability, T/C [6]: 15.6%; viability, T/C [7]: 107%; viability, T/C [8]: 105%; viability, T/C [9]: 96.2%; viability, T/C [10]: 73.5%; viability, T/C [11]: 37.6%; viability, T/C [12]: 15.1%; viability, T/C [13]: 103%; viability, T/C [14]: 94.3%; viability, T/C [15]: 100%; viability, T/C [16]: 61.1%; viability, T/C [17]: 42.4%; viability, T/C [18]: 17.3%; viability, T/C [19]: 120%; viability, T/C [20]: 94.1%; viability, T/C [21]: 95.3%; viability, T/C [22]: 88.1%; viability, T/C [23]: 38.1%; viability, T/C [24]: 21.4%; viability, T/C [25]: 90.6%; viability, T/C [26]: 109%; viability, T/C [27]: 100%; viability, T/C [28]: 72.6%; viability, T/C [29]: 31.7%; viability, T/C [30]: 18.8%; viability, T/C [31]: 89.8%; viability, T/C [32]: 103%; viability, T/C [33]: 106%; viability, T/C [34]: 72.1%; viability, T/C [35]: 47%; viability, T/C [36]: 16.6%

Q: With `COc1cc(C2c3cc4c(cc3C(OC3OC5COC(C)OC5C(O)C3O)C3COC(=O)C23)OCO4)cc(OC)c1O` (centres undefined) + Cc1cccc(N(C)C(=O)C2C(O)CCN2c2nc(C)cc(C(F)(F)F)c2C#N)c1 as the compound, how does the IC50 (second compound 0.0316 µM) read?
A: 0.377 µM

Q: What about the IC50 (second compound 0.1 µM) of the same compound?
A: 0.366 µM

Q: What about the IC50 (second compound 0.316 µM) of the same compound?
A: 0.501 µM

Q: And the IC50 (second compound 1 µM)?
A: 0.337 µM

Q: What about the IC50 (second compound 3.16 µM) of the same compound?
A: 0.226 µM

Q: And the IC50 (second compound 10 µM)?
A: 0.246 µM

Q: And the viability, T/C [1]?
A: 107%

Q: And the viability, T/C [2]?
A: 92.9%

Q: And the viability, T/C [3]?
A: 56.7%

Q: What about the viability, T/C [4] of the same compound?
A: 19.1%

Q: What about the viability, T/C [5] of the same compound?
A: 20.2%

Q: And the viability, T/C [6]?
A: 14.3%

Q: And the viability, T/C [7]?
A: 92.4%

Q: And the viability, T/C [8]?
A: 88%

Q: What about the viability, T/C [9] of the same compound?
A: 54.4%

Q: What about the viability, T/C [10] of the same compound?
A: 19.6%

Q: What about the viability, T/C [11] of the same compound?
A: 16.6%

Q: What about the viability, T/C [12] of the same compound?
A: 14.1%

Q: What about the viability, T/C [13] of the same compound?
A: 92.3%

Q: What about the viability, T/C [14] of the same compound?
A: 90.1%

Q: And the viability, T/C [15]?
A: 69.2%

Q: And the viability, T/C [16]?
A: 21.1%

Q: And the viability, T/C [17]?
A: 17.4%

Q: What about the viability, T/C [18] of the same compound?
A: 15.9%

Q: And the viability, T/C [19]?
A: 85.5%

Q: What about the viability, T/C [20] of the same compound?
A: 83.3%

Q: And the viability, T/C [21]?
A: 52%

Q: What about the viability, T/C [22] of the same compound?
A: 17.4%

Q: What about the viability, T/C [23] of the same compound?
A: 16.1%

Q: What about the viability, T/C [24] of the same compound?
A: 15.9%

Q: And the viability, T/C [25]?
A: 82.8%

Q: And the viability, T/C [26]?
A: 77.4%

Q: What about the viability, T/C [27] of the same compound?
A: 38.8%

Q: What about the viability, T/C [28] of the same compound?
A: 15.2%

Q: What about the viability, T/C [29] of the same compound?
A: 19.5%

Q: And the viability, T/C [30]?
A: 16.6%

Q: And the viability, T/C [31]?
A: 94.6%

Q: And the viability, T/C [32]?
A: 74.8%

Q: What about the viability, T/C [33] of the same compound?
A: 44.6%

Q: And the viability, T/C [34]?
A: 20.7%

Q: And the viability, T/C [35]?
A: 21.2%

Q: What about the viability, T/C [36] of the same compound?
A: 18.2%
